≈ marks a conversion by molar mass, not a printed value.
The compounds below were run on Streptococcus pyogenes (assay: Antibacterial activity against Streptococcus pyogenes M12 by time-kill curve assay).
Type: functional
For COc1c(N2C[C@@H]3CCCN[C@@H]3C2)c(F)cc2c(=O)c(C(=O)O)cn(C3CC3)c12 [MOXIFLOXACIN], the MIC was 0.125 µg/mL (≈ 0.311 µM).
CC1(C)S[C@@H]2[C@H](NC(=O)Cc3ccccc3)C(=O)N2[C@H]1C(=O)O [PENICILLIN G] was tested, and the MIC was 0.012 µg/mL (≈ 0.0359 µM).
CC[C@H]1OC(=O)[C@H](C)[C@@H](O[C@H]2C[C@@](C)(OC)[C@@H](O)[C@H](C)O2)[C@H](C)[C@@H](O[C@@H]2O[C@H](C)C[C@H](N(C)C)[C@H]2O)[C@](C)(O)C[C@@H](C)C(=O)[C@H](C)[C@@H](O)[C@]1(C)O [ERYTHROMYCIN] showed an MIC of 0.125 µg/mL (≈ 0.17 µM).
Compound CO/N=C(\C(=O)N[C@@H]1C(=O)N2C(C(=O)O)=C(COC(N)=O)CS[C@H]12)c1ccco1 [CEFUROXIME] has an MIC of 0.0313 µg/mL (≈ 0.0738 µM).
With CN[C@H](CC(C)C)C(=O)N[C@H]1C(=O)N[C@@H](CC(N)=O)C(=O)N[C@H]2C(=O)N[C@H]3C(=O)N[C@H](C(=O)N[C@H](C(=O)O)c4cc(O)cc(O)c4-c4cc3ccc4O)[C@H](O)c3ccc(c(Cl)c3)Oc3cc2cc(c3O[C@@H]2O[C@H](CO)[C@@H](O)[C@H](O)[C@H]2O[C@H]2C[C@](C)(N)[C@H](O)[C@H](C)O2)Oc2ccc(cc2Cl)[C@H]1O [VANCOMYCIN] the MIC was 0.25 µg/mL (≈ 0.173 µM).
